In ChEMBL document CHEMBL1152382, “Synthesis of novel quinoxaline derivatives and its cytotoxic activities” (Bioorg Med Chem Lett, 2009) one finds IC50 data, which are given here for 15 compounds.

One may read the IC50 as the concentration that gives 50% inhibition. High values mean lower potency, low ones higher potency.

SMILES strings stand for the structures.

The experiment in a line: Cytotoxicity against human HeLaS3 cells after 48 hrs by MTT assay. It counts as functional, cell-based. The settings on record: HeLa S3, 48 h. A general note: Formazan colour is commonly taken as a measure of viable cells.
Turning to `Cc1ccc2c(c1)N1CCCCC1C(=O)N2` (stereo not given), the IC50 amounted to 18.1 µM. This counts as double-digit micromolar.

As to `CC(C)C1Nc2ccccc2NC1=O` (stereo not given), the IC50 was 4.85 µM. `O=C1Nc2ccccc2NC1Cc1ccccc1` (stereo not given) gave an IC50 greater than 30 µM.

For the compound `O=C1Nc2ccccc2NC12CCCCC2`, the IC50 is greater than 30 µM.

With `O=C1Nc2cccnc2N2CCCCC12` (stereo not given), the IC50 was greater than 30 µM. As for `CCC(C)C1Nc2cc(Cl)ccc2NC1=O` (stereo not given), the figure is 17.2 µM; as for `CC1(C)Nc2ccccc2NC1=O`, greater than 30 µM. Turning to `O=C1Nc2cc(OC(F)(F)F)ccc2N2CCCCC12` (stereo not given), the IC50 is greater than 30 µM. In turn, `O=C1Nc2cc([N+](=O)[O-])ccc2N2CCCCC12` (stereo not given) gave an IC50 greater than 30 µM. In turn, `O=C1Nc2ccc(Cl)cc2N2CCCCC12` (stereo not given) gave an IC50 of 4.96 µM.

As to `Cc1cnc2c(c1)N1CCCCC1C(=O)N2` (stereo not given), the IC50 is greater than 30 µM. Regarding `CC(C)(C)C1Nc2ccccc2NC1=O` (stereo not given), the IC50 is greater than 30 µM.

As for `N#Cc1ccc2c(c1)N1CCCCC1C(=O)N2` (stereo not given), half-maximal inhibition (IC50) required 7.6 µM. With `O=C1Nc2ccccc2N2Cc3ccccc3CC12` (stereo not given), the IC50 is greater than 30 µM. For `O=C1Nc2ccccc2N2CCCC12` (stereo not given) the value was greater than 30 µM.
